Assay results: patent publication US20260092086A1, “ANTIMICROBIAL LASSO PEPTIDES” (priority 2022, published 2026)
Values after ≈ are worked out from the molar mass of the structure shown. Where a SMILES comes first, the peptide text is derived from it.

Assays:
[1] = system: Enterobacter amnigenus ATCC 33072; type: cell-based
Description: (§1) Cloacaenodin was evaluated against several common laboratory strains as well as commercially acquired strains using a spot-on-lawn assay.^45 Strains were streaked out onto LB agar plates and incubated overnight at their recommended temperatures. A single colony was then used to inoculate an overnight culture in 5 mL of LB broth. After shaking at 250 rpm at the recommended temperature for each strain, 50 μL of the overnight culture was used to inoculate 5 mL of LB broth (volume ratio 1:100). These cultures were grown for a few hours until they reached the exponential phase (OD600˜0.4-0.6) before being added to 10 mL of soft M63 agar at a final cell density of 10^7 CFUs/mL, or 10^8 CFUs total in 10 mL. The M63 soft agar was composed of 2 g/L of (NH4)2SO4 (EMD MilliporeSigma), 13.6 g/L of KH2PO4 (Fisher), 40 mg/L of each of the 20 common amino acids, 0.2% glucose (Sigma), 0.00005% w/v thiamine hydrochloride (Sigma), and 0.65% w/v bacteriological-grade agar (Apex Bioresearch). […] Upon solidification, 10 μL of purified cloacaenodin in water at two-fold dilutions were then spotted onto the agar and allowed to dry. The plates were incubated overnight at the strains' recommended temperatures and analyzed the next morning for activity. The MIC is defined as the last dilution where a spot was visible.

[2] = system: Enterobacter asburiae DSM 17506; type: cell-based
Description: as §1

[3] = system: Enterobacter cloacae ATCC 13047; type: cell-based
Description: as §1

[4] = system: Enterobacter mori DSM 26271; type: cell-based
Description: as §1

E. coli MG1655 = experiment: Spot-on-lawn assay in M63 agar; type: cell-based, Escherichia coli; conditions: purified cloacaenodin in water
Description: as §1

B. subtilis 168 = experiment: Spot-on-lawn assay in M63 agar; type: cell-based, Bacillus subtilis; conditions: purified cloacaenodin in water
Description: as §1

[5] = system: Enterobacter nimipressuralis DSM 18955; type: cell-based
[6] = Heating assay at 95° C., LC-MS; type: physicochemical; conditions: 1.5 hours
Description: The threaded nature of the collected cloacaenodin sample was next sought to be verified, because the threaded structure is crucial to the bioactivity of lasso peptides.^50 Heat treatment of certain lasso peptides leads to their unthreading: the unthreaded species often elutes differently than the threaded peptide.^48,49 We performed a heating assay at 95° C. and noticed that after 1.5 hours ˜5% of cloacaenodin eluted at around 12.4 min instead of 10.5 min (FIGS. 7A-7B). Upon treatment with carboxypeptidase^48,49, this later eluting peak was eliminated, and various earlier-eluting peaks consistent with C-terminal truncations of 6, 9, or 10 amino acids were then observed. These truncations were not observed for the unheated cloacaenodin sample when treated with carboxypeptidase (FIGS. 7A-8B). […] This unthreaded variant in the extract may have formed because of thermal unthreading during expression and purification, exposure to organic solvents during purification, or both. To ensure that the sample we collected from the HPLC remained stable, we froze the sample immediately upon collection until lyophilization, such that the peptide was minimally kept in solution.

trypsin = molecular target: T1, trypsin (Sus scrofa, UniProt P00761); experiment: Protease digestion, trypsin; type: in vitro ADME; conditions: 50 μM peptide, room temperature, 30 minutes to 1 hour, LC-MS
T1 construct: purchased Promega
T1 sequence (P00761 9-231): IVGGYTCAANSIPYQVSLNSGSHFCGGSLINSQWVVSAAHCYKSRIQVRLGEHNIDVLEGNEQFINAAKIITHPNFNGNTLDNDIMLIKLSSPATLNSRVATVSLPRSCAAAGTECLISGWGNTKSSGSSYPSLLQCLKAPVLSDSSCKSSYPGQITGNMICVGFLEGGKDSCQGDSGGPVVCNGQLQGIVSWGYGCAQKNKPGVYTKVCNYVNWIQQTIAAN
Description: Sequencing grade trypsin (Promega) was added to 50 μM peptide samples at a 1:100 trypsin: peptide weight ratio in a buffer of 50 mM ammonium bicarbonate. The reaction was allowed to proceed at room temperature for 30 minutes to 1 hour and then quenched by 1% formic acid. An aliquot was then injected onto LC-MS for analysis.

Elastase = molecular target: T2, Elastase (Sus scrofa, UniProt P00772); experiment: Protease digestion, elastase; type: in vitro ADME; conditions: 50 μM peptide, 25° C., about 1 hour, LC-MS
T2 construct: purchased Promega
T2 sequence (P00772 27-266): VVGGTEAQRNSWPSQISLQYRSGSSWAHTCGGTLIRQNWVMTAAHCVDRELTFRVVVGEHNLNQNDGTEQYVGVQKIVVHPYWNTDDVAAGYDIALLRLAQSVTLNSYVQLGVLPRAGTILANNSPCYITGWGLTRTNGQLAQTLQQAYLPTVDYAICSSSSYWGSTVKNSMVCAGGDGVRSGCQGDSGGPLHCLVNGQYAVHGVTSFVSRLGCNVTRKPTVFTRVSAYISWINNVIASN
Description: Elastase (Promega) was resuspended in 50 mM Tris pH 9.0. The enzyme was added to 50 μM peptide samples at a final enzyme concentration of about 0.04 mg/mL in a buffer of 50 mM Tris, pH 9. The reactions were then allowed to incubate at 25° C. for about 1 hour before quenching with 1% formic acid. An aliquot was then injected into LC-MS for analysis.

[7] = spot-on-lawn, M63 agar, purified cloacaenodin in water
[8] = listed as Threaded cloacaenodin
[9] = listed as threaded cloacaenodin

## CC[C@H](C)[C@@H]1NC(=O)[C@H](CCCNC(=N)N)NC(=O)[C@H](CC(=O)O)NC(=O)[C@H](C(C)C)NC(=O)[C@H](CO)NC(=O)[C@H](Cc2c[nH]cn2)NC(=O)CNC(=O)CC[C@@H](C(=O)N[C@@H](Cc2ccc(O)cc2)C(=O)N[C@@H](Cc2ccccc2)C(=O)NCC(=O)N2CCC[C@H]2C(=O)N2CCC[C@H]2C(=O)NCC(=O)N[C@@H](CC(C)C)C(=O)N2CCC[C@H]2C(=O)NCC(=O)N2CCC[C@H]2C(=O)N[C@H](C(=O)N[C@@H](CC(C)C)C(=O)N[C@@H](Cc2ccccc2)C(=O)N[C@@H](Cc2ccc(O)cc2)C(=O)N[C@@H](CO)C(=O)O)C(C)C)NC(=O)[C@@H]2CCCN2C1=O [cloacaenodin] (HELM PEPTIDE1{G.H.S.V.D.R.I.P.E.Y.F.G.P.P.G.L.P.G.P.V.L.F.Y.S}$PEPTIDE1,PEPTIDE1,1:R1-9:R3$$$V2.0; C-terminus assumed)
[1]; ATCC 33072
  MIC in M63 media: 1.9 µM (≈ 4.91 µg/mL)
[1]; Enterobacter amnigenus ATCC 33072
  strain susceptible to cloacaenodin: * Enterobacter amnigenus
[1]; [7]
  antimicrobial activity (zones of inhibition): zones of inhibition in the low micromolar range
[2]; DSM 17506
  MIC in M63 media: 1.9 µM (≈ 4.91 µg/mL)
[2]; [7]
  antimicrobial activity (zones of inhibition): zones of inhibition in the low micromolar range
[3]; ATCC 13047
  MIC in M63 media: 7.5 µM (≈ 19.4 µg/mL)
[3]; Enterobacter cloacae subsp. cloacae ATCC 13047
  strain susceptible to cloacaenodin: * Enterobacter cloacae subsp. cloacae
[3]; peptide at a concentration of 15 μM, listed as threaded cloacaenodin
  activity against Enterobacter cloacae: has activity
[3]; [7]
  antimicrobial activity (zones of inhibition): zones of inhibition in the low micromolar range
[4]; DSM 26271
  MIC in M63 media: 3.8 µM (≈ 9.82 µg/mL)
[4]; Enterobacter mori DSM 26271
  strain susceptible to cloacaenodin: * Enterobacter mori
[4]; [7]
  antimicrobial activity (zones of inhibition): zones of inhibition in the low micromolar range
E. coli MG1655
  antimicrobial activity (zones of inhibition): no observed activity
B. subtilis 168
  antimicrobial activity (zones of inhibition): no observed activity
[5]
  MIC in M63 media: 0.94 µM (≈ 2.43 µg/mL)
[6]
  fraction eluting as later (unthreaded) peak after heating: ~5%
trypsin; [8]
  proteolysis by trypsin: resistant to trypsin digestion
trypsin; [9]
  proteolysis by trypsin: remained resistant to proteolysis
Elastase; [8]
  proteolysis by elastase: resistant to elastase digestion
Elastase; [9]
  proteolysis by elastase: remained resistant to proteolysis
